Consider 2 molecules from patent publication US11725038B2 (priority 2007, dated 2023).

For assay [1], the system named is uninfected HEK 293T cells. The note with it: uninfected HEK 293T cells (N=4). How it is done:
Human embryonic kidney (HEK) 293T cells were maintained as previously described (Qian et al., J. Physiol., 562, 319-31 (2005)). For recordings, HEK 293T cells were plated onto glass coverslips pretreated with poly-D-lysine (0.1 mg/ml) and rat-tail collagen (0.1 mg/ml; BD Biosciences, San Jose, Calif.) in 35 mm culture dishes at 1-2×10^5 cells per dish. 24 hours after plating, the cells were infected with the GlyR-HSV construct. For infections the growth medium was removed, the cells were washed twice with serum free growth medium, and vHGlyRα1 was added at a multiplicity of infection (MOI) of 10. The cells were then incubated at 37° C. for 1 hour. Following incubation, 1.5 ml of growth medium (with serum) was added and the cells were incubated for an additional 24 hours at 37° C. Recordings were then performed 24 hours post-infection at room temperature. Glycine-mediated whole-cell currents were recorded with an Axopatch 200 amplifier (Molecular Devices, Union City, Calif.) in voltage-clamp mode. […] Data were recorded with a Digidata 1322A digitizer under the control of pClamp 9.2 software (Molecular Devices) and all analyses were performed with Clampfit 9.2 (Molecular Devices) or Origin 7.0 (OriginLab, Northampton, Mass.). Percent desensitization was measured as 100×(1−ISS/Ipeak), where ISS and IPeak are the amplitudes of current at steady state and peak, respectively.

Assay [2] has as its target T1, vHGlyRα1 infected HEK 293T cells (Homo sapiens, UniProt P23415).
T1 construct: expressed in transfected cells; host or cells: HEK 293T cells infected with replication-defective HSV vector vHGlyRα1 (HCMV promoter), MOI 10
T1 sequence (P23415 29-457): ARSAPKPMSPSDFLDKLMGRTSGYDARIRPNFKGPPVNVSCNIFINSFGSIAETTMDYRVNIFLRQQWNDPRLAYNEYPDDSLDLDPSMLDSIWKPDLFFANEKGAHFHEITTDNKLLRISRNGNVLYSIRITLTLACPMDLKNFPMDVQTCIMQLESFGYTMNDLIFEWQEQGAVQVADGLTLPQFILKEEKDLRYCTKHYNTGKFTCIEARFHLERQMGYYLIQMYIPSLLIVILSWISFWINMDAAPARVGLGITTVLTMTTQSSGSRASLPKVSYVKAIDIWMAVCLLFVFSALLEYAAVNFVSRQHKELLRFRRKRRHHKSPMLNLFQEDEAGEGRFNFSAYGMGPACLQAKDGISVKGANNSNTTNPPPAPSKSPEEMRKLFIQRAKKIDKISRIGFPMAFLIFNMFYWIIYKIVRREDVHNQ
The assay can be described thus: glycine-mediated whole-cell currents, voltage-clamp recording. Format: cell-based. The note with it: for mean peak current: 24 hours post-infection, MOI 10; for percent desensitization: 100×(1−ISS/Ipeak). How it is done:
Human embryonic kidney (HEK) 293T cells were maintained as previously described (Qian et al., J. Physiol., 562, 319-31 (2005)). For recordings, HEK 293T cells were plated onto glass coverslips pretreated with poly-D-lysine (0.1 mg/ml) and rat-tail collagen (0.1 mg/ml; BD Biosciences, San Jose, Calif.) in 35 mm culture dishes at 1-2×10^5 cells per dish. 24 hours after plating, the cells were infected with the GlyR-HSV construct. For infections the growth medium was removed, the cells were washed twice with serum free growth medium, and vHGlyRα1 was added at a multiplicity of infection (MOI) of 10. The cells were then incubated at 37° C. for 1 hour. Following incubation, 1.5 ml of growth medium (with serum) was added and the cells were incubated for an additional 24 hours at 37° C. Recordings were then performed 24 hours post-infection at room temperature. Glycine-mediated whole-cell currents were recorded with an Axopatch 200 amplifier (Molecular Devices, Union City, Calif.) in voltage-clamp mode. Solutions were delivered via an in-house fabricated fast perfusion system (Qian et al., J. Physiol., 538, 65-77 (2002)). The external solution contains (in mM): 140 NaCl, 5 KCl, 2 CaCl2), 1 MgCl2, and 10 HEPES; pH is 7.2+0.05, adjusted with NaOH and osmolality 290+10 adjusted with sucrose as needed. The internal solution contains (in mM): 140 CsCl, 1 CaCl2), 1 MgCl2, 2 MgATP, 10 HEPES, and 10 EGTA; pH is 7.3+0.05, adjusted with CsOH and osmolality 300+0.05. Data were recorded with a Digidata 1322A digitizer under the control of pClamp 9.2 software (Molecular Devices) and all analyses were performed with Clampfit 9.2 (Molecular Devices) or Origin 7.0 (OriginLab, Northampton, Mass.). Percent desensitization was measured as 100×(1−ISS/Ipeak), where ISS and IPeak are the amplitudes of current at steady state and peak, respectively.

Assay [3] concerns formalin-induced nociceptive behavior. Nature of the assay: rat formalin model of pain. Format: in vivo.
Experimental: For in vivo studies, rats were subcutaneously injected with vHGlyRα1 or vHG, a control vector without al GlyR, into the plantar surface of the right hind foot. Analgesic effects of viral injections were assessed one week later by subcutaneous injection of formalin.
Specifically, 3-month-old male Sprague-Dawley rats (225-250 g) were injected with 200 μl (1×10^8 plaque forming units) of either vHGlyRα1 or vHG into the plantar surface of the right hind foot. One week later the analgesic properties of the vectors was assessed by subcutaneously injecting 50 μl of 2.5% formalin into the right hind foot and assessing pain-related behaviors as previously described (Goss et al., Gene Ther., 8, 551-6 (2001)). […] The beginning of second phase pain varied between animals from 20 to 40 minutes; this variation was independent of the vector used.
Assay [4] concerns the target T2, mutant (M287L) mouse glycine α1 receptor (Mus musculus, UniProt Q64018, M315L).
T2 sequence (Q64018 29-457 M315L): T1 sequence (P23415 29-457) with M287L, E334D, A337G, S368N, Q429K
The note with it: M287L mutation versus wild-type; cited from earlier work.

[5] abbreviates: higher glycine concentration (1 mM).
The mark [6] stands for this setting: lower glycine concentration (50 uM).

Where a chain is given by its changes, count along the chain named.

Take `NCC(=O)O` [glycine]: the “current response to application of glycine” value in assay [1] was “failed to elicit a current response”. Further, the figures for the mean peak current in assay [2] (50 uM glycine) and in assay [2] (1 mM glycine) were −3.57+0.59 nA and −9.25+1.47 nA, respectively. Also, the 10-90% rise time in assay [2] (setting [5]) was 11.4 ± 1.0 ms; in assay [2] (setting [6]) it was 265.2 ± 79.1 ms. In addition, the percent desensitization in assay [2] (setting [5]) is 89.8+1.1%; in assay [2] (setting [6]), 73.4+7.3%. In assay [3] (vHG transfected animals (control vector)), the “nociceptive behavior following glycine application” value is “small, transient, non-significant dip”. Moreover, the “second phase pain following injection of glycine” value in assay [3] (vHGlyRα1-infected animals, 50 μl of 100 mM glycine at the 30 minute time point) was “significantly reduced”.
Take `FC(F)OC(F)(F)C(F)Cl` (stereo not shown) [enflurane]: the “sensitivity of the receptor to the volatile anesthetic” value in assay [4] is recorded as “greatly enhanced sensitivity”.
